Results taken from article PMC6197744, “Triazolo[4,5-d]pyrimidines as Validated General Control Nonderepressible 2 (GCN2) Protein Kinase Inhibitors Reduce Growth of Leukemia Cells” (Computational and Structural Biotechnology Journal, 2018).
≈ marks a conversion by molar mass, not a printed value. Where two headings read alike, the source gives them in different places.

Tests used:
human GCN2 = molecular target: T1, human GCN2 (Homo sapiens, UniProt Q9P2K8); experiment: radiometric HotSpot kinase assay; format: biochemical; conditions: ATP at the ATP Km of GCN2; means of two independent experiments
T1 construct: purchased Reaction Biology Corporation (Malvern, PA)
T1 sequence (Q9P2K8 whole entry): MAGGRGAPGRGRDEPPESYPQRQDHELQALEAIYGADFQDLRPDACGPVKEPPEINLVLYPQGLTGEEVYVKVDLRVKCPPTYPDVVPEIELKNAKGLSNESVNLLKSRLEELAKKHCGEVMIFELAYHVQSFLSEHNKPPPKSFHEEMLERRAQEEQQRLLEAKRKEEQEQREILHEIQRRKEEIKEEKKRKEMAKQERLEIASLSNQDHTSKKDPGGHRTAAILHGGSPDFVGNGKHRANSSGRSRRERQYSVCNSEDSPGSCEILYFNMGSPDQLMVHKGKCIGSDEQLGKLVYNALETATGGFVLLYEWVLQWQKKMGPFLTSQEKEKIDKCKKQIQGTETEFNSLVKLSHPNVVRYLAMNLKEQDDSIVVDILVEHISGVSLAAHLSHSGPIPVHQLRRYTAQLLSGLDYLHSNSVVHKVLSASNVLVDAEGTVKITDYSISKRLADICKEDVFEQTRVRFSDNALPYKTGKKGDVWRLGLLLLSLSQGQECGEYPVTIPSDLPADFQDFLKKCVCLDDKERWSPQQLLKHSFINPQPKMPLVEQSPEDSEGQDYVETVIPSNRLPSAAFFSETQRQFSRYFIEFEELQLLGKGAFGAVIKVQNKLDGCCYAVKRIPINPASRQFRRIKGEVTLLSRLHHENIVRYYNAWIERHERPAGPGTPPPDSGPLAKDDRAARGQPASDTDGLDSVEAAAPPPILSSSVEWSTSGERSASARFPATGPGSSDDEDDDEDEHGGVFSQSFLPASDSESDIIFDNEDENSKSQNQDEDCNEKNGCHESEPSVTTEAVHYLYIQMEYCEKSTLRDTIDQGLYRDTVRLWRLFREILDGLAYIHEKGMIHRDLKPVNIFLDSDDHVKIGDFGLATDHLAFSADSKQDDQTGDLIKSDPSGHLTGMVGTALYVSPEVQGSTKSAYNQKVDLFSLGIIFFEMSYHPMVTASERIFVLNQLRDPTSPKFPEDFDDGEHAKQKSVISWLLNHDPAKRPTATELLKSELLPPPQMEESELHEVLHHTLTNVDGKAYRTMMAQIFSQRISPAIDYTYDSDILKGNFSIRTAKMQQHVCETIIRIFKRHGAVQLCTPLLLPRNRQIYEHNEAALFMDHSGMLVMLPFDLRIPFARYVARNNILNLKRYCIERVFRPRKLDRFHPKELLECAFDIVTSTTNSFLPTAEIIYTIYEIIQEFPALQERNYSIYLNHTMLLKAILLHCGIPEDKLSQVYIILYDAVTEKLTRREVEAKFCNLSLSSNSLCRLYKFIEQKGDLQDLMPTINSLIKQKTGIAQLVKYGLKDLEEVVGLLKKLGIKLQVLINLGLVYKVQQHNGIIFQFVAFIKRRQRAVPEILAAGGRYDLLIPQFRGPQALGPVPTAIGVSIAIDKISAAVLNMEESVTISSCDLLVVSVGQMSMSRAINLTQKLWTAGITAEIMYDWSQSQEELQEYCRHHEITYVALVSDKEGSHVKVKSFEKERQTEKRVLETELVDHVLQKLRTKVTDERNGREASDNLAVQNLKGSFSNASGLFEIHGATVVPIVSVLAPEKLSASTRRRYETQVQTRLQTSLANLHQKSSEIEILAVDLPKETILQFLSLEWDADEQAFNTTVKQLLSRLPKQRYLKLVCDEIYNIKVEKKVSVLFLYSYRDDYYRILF
Protocol: (§1) Compounds 1–9 were screened in a radiometric […] kinase assay against human GCN2 and other kinases involved in the UPR and ISR pathways (Table 1). […] The most soluble of the potent tool compounds (1 and 2) were selected for in vitro cell-based assays where the phosphorylation of eIF2α (p-eIF2α) was used as a readout for GCN2 inhibition.
(§2) In vitro compound profiling for recombinant GCN2, PERK, HRI, PKR, or IRE1 kinases were performed at Reaction Biology Corporation (Malvern, PA) using the HotSpot kinase assay. Briefly, all compounds provided for testing were dissolved in 10 mM DMSO stock solutions. Serial dilutions were conducted by epMotion 5070 in DMSO. Specific kinase/substrate mixtures and required cofactors were prepared in reaction buffer (20 mM Hepes (pH 7.5), 10 mM MgCl2, 1 mM EGTA, 0.02% Brij35, 0.02 mg/ml BSA, 0.1 mM Na3VO4, 2 mM DTT, 1% DMSO). Compounds were added to the kinase reaction mixture by Acoustic technology (Echo550; nanoliter range) and incubated for 20 min at room temperature. The kinase reaction was initiated by adding ^33P ATP to a final concentration of 10 μM for single point kinase activity reading or to the ATP Km of GCN2 for IC50 readings. The reaction was incubated or 2 h at room temperature and kinase activity was detected by filter-binding method. IC50 values and curves were generated with GraphPad Prism 7 (GraphPad software).

PERK = molecular target: T2, PERK (Homo sapiens, UniProt Q9NZJ5); experiment: radiometric HotSpot kinase assay; format: biochemical; conditions: read-out: % Enzyme inhibition at 10 μM, PERK
T2 construct: purchased Reaction Biology Corporation (Malvern, PA)
T2 sequence (Q9NZJ5 30-1116): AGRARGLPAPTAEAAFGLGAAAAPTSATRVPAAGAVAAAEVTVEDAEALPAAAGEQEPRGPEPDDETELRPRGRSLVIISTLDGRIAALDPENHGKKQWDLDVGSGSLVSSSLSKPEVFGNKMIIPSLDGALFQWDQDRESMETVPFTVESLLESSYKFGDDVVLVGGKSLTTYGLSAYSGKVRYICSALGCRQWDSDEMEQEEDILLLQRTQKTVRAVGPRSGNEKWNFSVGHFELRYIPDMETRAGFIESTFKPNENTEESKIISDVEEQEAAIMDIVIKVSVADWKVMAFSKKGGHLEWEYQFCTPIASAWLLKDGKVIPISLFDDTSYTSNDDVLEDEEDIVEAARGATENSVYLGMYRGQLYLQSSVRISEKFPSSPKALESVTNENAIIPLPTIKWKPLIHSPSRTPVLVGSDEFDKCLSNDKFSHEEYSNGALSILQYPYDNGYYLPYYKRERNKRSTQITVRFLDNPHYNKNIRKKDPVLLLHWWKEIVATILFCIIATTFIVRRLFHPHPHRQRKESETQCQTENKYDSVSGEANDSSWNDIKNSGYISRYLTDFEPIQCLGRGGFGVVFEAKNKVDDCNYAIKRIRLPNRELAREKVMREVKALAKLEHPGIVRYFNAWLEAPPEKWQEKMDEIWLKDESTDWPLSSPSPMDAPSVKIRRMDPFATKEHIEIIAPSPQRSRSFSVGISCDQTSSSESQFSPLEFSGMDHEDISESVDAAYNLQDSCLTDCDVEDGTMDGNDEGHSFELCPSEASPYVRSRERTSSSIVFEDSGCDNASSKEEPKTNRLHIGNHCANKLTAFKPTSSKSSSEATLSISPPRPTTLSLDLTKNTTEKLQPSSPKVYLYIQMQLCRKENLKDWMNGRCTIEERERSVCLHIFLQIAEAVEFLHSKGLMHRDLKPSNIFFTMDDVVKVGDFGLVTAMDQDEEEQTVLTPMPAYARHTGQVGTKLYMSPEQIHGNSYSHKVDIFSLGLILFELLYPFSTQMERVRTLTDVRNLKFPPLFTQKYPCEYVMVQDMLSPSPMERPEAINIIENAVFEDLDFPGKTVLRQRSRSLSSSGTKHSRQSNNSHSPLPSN
Protocol: as §2, with “Serial dilutions were conducted by epMotion 5070 in DMSO.” left out, “The kinase reaction was initiated by adding ^33P ATP to a final concentration of 10 μM for single point kinase activity reading or to the ATP Km of GCN2 for IC50 readings.” left out

PKR = molecular target: T3, PKR (Homo sapiens, UniProt P19525); experiment: radiometric HotSpot kinase assay; format: biochemical; conditions: 10 μM compound, 10 μM ATP; read-out: % Enzyme inhibition at 10 μM, PKR
T3 construct: purchased Reaction Biology Corporation (Malvern, PA)
T3 sequence (P19525 whole entry): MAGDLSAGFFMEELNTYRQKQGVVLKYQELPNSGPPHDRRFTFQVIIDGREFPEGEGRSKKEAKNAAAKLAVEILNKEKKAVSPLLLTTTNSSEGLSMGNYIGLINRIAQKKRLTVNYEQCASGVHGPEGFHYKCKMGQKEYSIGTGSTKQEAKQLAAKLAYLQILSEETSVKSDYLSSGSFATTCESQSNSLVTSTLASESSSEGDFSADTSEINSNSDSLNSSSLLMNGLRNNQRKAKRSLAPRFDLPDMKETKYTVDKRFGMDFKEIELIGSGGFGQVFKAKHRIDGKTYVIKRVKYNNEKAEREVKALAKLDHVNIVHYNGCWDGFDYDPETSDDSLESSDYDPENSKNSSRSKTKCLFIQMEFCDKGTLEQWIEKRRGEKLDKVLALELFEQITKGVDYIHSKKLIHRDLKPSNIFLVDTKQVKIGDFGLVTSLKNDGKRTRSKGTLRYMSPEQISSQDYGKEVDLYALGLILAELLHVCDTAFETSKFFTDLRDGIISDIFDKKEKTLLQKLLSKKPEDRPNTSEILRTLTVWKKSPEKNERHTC
Protocol: as §1, §2

IRE1 = molecular target: T4, IRE1 (Homo sapiens, UniProt O75460); experiment: radiometric HotSpot kinase assay; format: biochemical; conditions: 10 μM compound, 10 μM ATP; read-out: % Enzyme inhibition at 10 μM, IRE1
T4 construct: purchased Reaction Biology Corporation (Malvern, PA)
T4 sequence (O75460 19-977): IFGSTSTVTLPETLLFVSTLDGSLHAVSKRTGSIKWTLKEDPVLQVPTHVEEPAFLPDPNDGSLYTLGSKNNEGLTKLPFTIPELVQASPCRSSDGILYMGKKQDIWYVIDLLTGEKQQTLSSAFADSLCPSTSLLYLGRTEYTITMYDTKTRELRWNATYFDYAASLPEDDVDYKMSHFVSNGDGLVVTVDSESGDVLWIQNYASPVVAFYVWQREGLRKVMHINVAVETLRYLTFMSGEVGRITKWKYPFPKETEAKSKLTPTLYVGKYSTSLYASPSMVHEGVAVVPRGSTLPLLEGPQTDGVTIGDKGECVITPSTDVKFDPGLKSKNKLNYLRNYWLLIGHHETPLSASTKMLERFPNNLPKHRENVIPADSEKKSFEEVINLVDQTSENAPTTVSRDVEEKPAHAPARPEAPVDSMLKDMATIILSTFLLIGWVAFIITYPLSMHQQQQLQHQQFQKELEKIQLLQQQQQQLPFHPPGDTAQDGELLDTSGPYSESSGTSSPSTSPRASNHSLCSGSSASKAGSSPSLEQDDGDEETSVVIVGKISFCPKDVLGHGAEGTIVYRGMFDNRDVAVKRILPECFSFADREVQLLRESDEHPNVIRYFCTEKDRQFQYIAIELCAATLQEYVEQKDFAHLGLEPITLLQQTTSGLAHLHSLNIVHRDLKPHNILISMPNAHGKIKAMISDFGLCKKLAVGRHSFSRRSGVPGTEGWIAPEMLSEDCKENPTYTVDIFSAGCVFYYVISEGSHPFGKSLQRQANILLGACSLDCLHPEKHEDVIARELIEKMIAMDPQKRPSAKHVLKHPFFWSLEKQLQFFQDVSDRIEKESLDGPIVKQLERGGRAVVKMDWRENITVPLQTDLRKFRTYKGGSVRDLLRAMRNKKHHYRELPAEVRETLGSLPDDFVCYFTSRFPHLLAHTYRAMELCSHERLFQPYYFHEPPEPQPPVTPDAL
Protocol: as §1, §2

HRI = molecular target: T5, HRI (Homo sapiens, UniProt Q9BQI3); experiment: radiometric HotSpot kinase assay; format: biochemical; conditions: 10 μM compound, 10 μM ATP; read-out: % Enzyme inhibition at 10 μM, HRI
T5 construct: purchased Reaction Biology Corporation (Malvern, PA)
T5 sequence (Q9BQI3 whole entry): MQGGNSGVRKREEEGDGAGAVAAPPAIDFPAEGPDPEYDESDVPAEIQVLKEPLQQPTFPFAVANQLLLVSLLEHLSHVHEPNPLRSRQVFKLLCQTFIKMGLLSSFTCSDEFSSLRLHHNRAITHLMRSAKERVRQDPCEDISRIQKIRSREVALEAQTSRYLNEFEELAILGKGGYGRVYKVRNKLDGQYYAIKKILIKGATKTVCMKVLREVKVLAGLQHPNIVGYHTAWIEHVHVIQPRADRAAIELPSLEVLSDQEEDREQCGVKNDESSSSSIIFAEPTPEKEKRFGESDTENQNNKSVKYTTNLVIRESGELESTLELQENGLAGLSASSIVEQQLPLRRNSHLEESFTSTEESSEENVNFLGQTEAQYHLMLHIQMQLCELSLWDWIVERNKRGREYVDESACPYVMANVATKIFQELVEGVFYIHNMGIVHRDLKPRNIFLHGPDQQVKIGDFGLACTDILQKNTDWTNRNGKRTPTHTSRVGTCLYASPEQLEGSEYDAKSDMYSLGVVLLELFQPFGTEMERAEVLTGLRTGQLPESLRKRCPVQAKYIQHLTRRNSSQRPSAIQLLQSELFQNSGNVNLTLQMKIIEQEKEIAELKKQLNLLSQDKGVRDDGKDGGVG
Protocol: as §1, §2

Kinetic solubility assay = format: physicochemical; conditions: aqueous buffer, kinetic from dmso stock; PBS pH 7.4, 25 °C, 2 h
Protocol: Compound solubility was determined in PBS at pH 7.4 by Pharmaron, Inc. (Beijing, China). Briefly, all compounds and control solutions were prepared in DMSO at concentrations of 10 mM. Diclofenac was used as a positive control. 10 μL or 30 μL of each compound was added into a 96-well plate, followed by adding 990 μL or 970 μL, respectively, of PBS at pH 7.4. A stir stick was added to each well and wells were sealed using a molded PTDE/SIL 96-Well Plate Cover. […] After incubation the samples were transferred into the filter plate and filtered by Vacuum Manifold. The filtered samples were diluted with methanol to obtain 3 μM standards (STD). The samples were analyzed by LC-MS/MS against a standard of known concentration in DMSO. The solubility values of duplicate test compounds were calculated in Microsoft Excel using the following equation, where DF means dilution factor: Sample=AREASample×INJVOLStd×DFSample×STD/AREAStd×INJVOLSample

[1] = Permeability assay (PAMPA); format: in vitro ADME; conditions: pH 7.4, 25 °C, <10 low, >10 high permeability
Protocol: GCN2 compound permeability was determined by PAMPA and was performed by Pharmaron, Inc. (Beijing, China). All compounds and control stock solutions were prepared in DMSO at a concentration of 10 mM. Testosterone and methotrexate were used as control compounds. Compound stock solutions were diluted with PBS (pH 7.4) to a final concentration of 10 μM. A 1.8% solution (w/v) of lecithin in dodecane was prepared and sonicated to ensure a complete dissolution. 5 μL of the lecithin/dodecane mixture were pipetted into each acceptor plate well (top compartment). Immediately after the application of the artificial membrane (within 10 min), 300 μL of PBS (pH 7.4) solution were added to each well of the acceptor plate. 300 μL of drug-containing solutions were added to each well of the donor plate (bottom compartment) in triplicate. The plate lid was replaced and incubated at 25 °C, 60 rpm for 16 h. After incubation, aliquots of 50 μL from each well of acceptor and donor plate were transferred into a 96-well plate and 200 μL of methanol (containing IS: 100 nM Alprazolam, 200 nM Labetalol and 2 μM Ketoprofen) was added to each well. The plate was vortexed at 750 rpm for 100 s. Samples were centrifuged at 3220g for 20 min. The compound concentrations were determined by LC/MS/MS. The effective permeability (Pe), in units of centimeter per second were calculated using the following equation: logPe=logC×−ln1−drugacceptor/drugequilibrium

GCN2 = tested on: GCN2; design: method as in PMID 25587754; conditions: biochemical inhibition of kinase activity; cited from earlier work

SMILES | IC50 (human GCN2) [nM] | inhibition at 10 µM (PERK; 10 μM compound, 10 μM ATP) [%] | inhibition at 10 µM (PKR) [%] | inhibition at 10 µM (IRE1) [%] | inhibition at 10 µM (HRI) [%] | solubility at 2 h (Kinetic solubility assay) [µM] | Papp at 16 h, 10 μM [1] [×10⁻⁶ cm/s] | inhibition at 10 µM (PERK) [%] | IC50 (GCN2) [nM]
CCOc1ccc(-n2nnc3cnc(Nc4cnn(C5CCOCC5)c4)nc32)cc1 [Compound 3, 3-(4-Ethoxyphenyl)-N-(1-(tetrahydro-2H-pyran-4-yl)-1H-pyrazol-4-yl)-3H-[1,2,3]triazolo[4,5-d]pyrimidin-5-amine] | 44.5 | 25 |  |  |  |  |  |  | 
COC(=O)c1ccc(-n2nnc3cnc(Nc4cnn([C@H]5CC[C@H](O)CC5)c4)nc32)cc1 [Compound 9, methyl 4-(5-((1-(trans-4-hydroxycyclohexyl)-1H-pyrazol-4-yl)amino)-3H-[1,2,3]triazolo[4,5-d]pyrimidin-3-yl)benzoate] | 46.4 | 14 | 95 | 24 | < 10 | 0.17 (≈ 0.0739 µg/mL) | 2.29 |  | 
COC(=O)c1ccc(-n2nnc3cnc(Nc4cnn(C5CCOCC5)c4)nc32)cc1 [Compound 5, Methyl 4-(5-((1-(tetrahydro-2H-pyran-4-yl)-1H-pyrazol-4-yl)amino)-3H-[1,2,3]triazolo[4,5-d]pyrimidin-3-yl)benzoate] | 17.2 | < 10 | 96 | 22 | < 10 | 0.2 (≈ 0.0841 µg/mL) | 10.5 |  | 
Fc1cc(-n2nnc3cnc(Nc4cnn(C5CCOCC5)c4)nc32)ccc1Cl [Compound 4, 3-(4-Chloro-3-fluorophenyl)-N-(1-(tetrahydro-2H-pyran-4-yl)-1H-pyrazol-4-yl)-3H-[1,2,3]triazolo[4,5-d]pyrimidin-5-amine] | 25.7 | < 10 | 96 | 18 | < 10 | 0.05 (≈ 0.0207 µg/mL) | 2.19 |  | 
Cc1cccc(CC(=O)N2CCc3c2ccc(-c2cn(C)c4ncnc(N)c24)c3F)n1 [GSK2656157, reference compound] | > 10000 |  |  |  |  |  |  | 100 | 
CCOc1ccc(-n2nnc3cnc(Nc4cnn([C@H]5CC[C@H](O)CC5)c4)nc32)cc1 [Compound 7, trans-4-(4-((3-(4-Ethoxyphenyl)-3H-[1,2,3]triazolo[4,5-d]pyrimidin-5-yl)amino)-1H-pyrazol-1-yl)cyclohexan-1-ol] | 22.4 | 24 |  |  |  |  |  |  | 
CNc1ncc2c(F)c(-c3c(C)ccc(C(=O)c4c(-c5ccccc5)n(C)n(-c5ccccc5)c4=O)c3N)ccc2n1 [4-{2-amino-3-[5-fluoro-2-(methylamino)quinazolin-6-yl]-4-methylbenzoyl}-1-methyl-2,5-diphenyl-1,2-dihydro-3H-pyrazol-3-one] |  |  |  |  |  |  |  |  | 36
c1nn(C2CCOCC2)cc1Nc1ncc2nnn(-c3ccc4cn[nH]c4c3)c2n1 [Compound 6, 3-(1H-Indazol-6-yl)-N-(1-(tetrahydro-2H-pyran-4-yl)-1H-pyrazol-4-yl)-3H-[1,2,3]triazolo[4,5-d]pyrimidin-5-amine] | 20.5 | 35 |  |  |  |  |  |  | 
O[C@H]1CC[C@H](n2cc(Nc3ncc4nnn(-c5ccc(Cl)c(F)c5)c4n3)cn2)CC1 [Compound 8, trans-4-(4-((3-(4-chloro-3-fluorophenyl)-3H-[1,2,3]triazolo[4,5-d]pyrimidin-5-yl)amino)-1H-pyrazol-1-yl)cyclohexan-1-ol] | 21.1 | < 10 | 98 | 15 | < 10 | 0.1 (≈ 0.0429 µg/mL) | 4.68 |  | 
